# Experimental data published in US10233173B2, “Substituted 1,2,3-triazoles as NR2B-selective NMDA modulators” (JANSSEN PHARMACEUTICA NV, priority 2016, dated 2019).
# Molecular target: human GluN1/GluN2B NMDA receptors (Homo sapiens, UniProt Q05586+Q13224)
# Experiment: Cell-based calcium flux (FLIPR) assay on cloned human NR1/NR2B ion channels expressed in mammalian cells
# Conditions: standard assay; glutamate at ~EC80; FLIPR calcium flux
# Outline: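 Calcium influx followed by FLIPR fluorescence after 5 min compound exposure and a further 5 min co-agonist challenge: 10 μM glycine with glutamate at ~EC80 (standard) or EC40 (HTS).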
# Sequence of human GluN1/GluN2B NMDA receptors (Q13224 27-1484, other chains not shown): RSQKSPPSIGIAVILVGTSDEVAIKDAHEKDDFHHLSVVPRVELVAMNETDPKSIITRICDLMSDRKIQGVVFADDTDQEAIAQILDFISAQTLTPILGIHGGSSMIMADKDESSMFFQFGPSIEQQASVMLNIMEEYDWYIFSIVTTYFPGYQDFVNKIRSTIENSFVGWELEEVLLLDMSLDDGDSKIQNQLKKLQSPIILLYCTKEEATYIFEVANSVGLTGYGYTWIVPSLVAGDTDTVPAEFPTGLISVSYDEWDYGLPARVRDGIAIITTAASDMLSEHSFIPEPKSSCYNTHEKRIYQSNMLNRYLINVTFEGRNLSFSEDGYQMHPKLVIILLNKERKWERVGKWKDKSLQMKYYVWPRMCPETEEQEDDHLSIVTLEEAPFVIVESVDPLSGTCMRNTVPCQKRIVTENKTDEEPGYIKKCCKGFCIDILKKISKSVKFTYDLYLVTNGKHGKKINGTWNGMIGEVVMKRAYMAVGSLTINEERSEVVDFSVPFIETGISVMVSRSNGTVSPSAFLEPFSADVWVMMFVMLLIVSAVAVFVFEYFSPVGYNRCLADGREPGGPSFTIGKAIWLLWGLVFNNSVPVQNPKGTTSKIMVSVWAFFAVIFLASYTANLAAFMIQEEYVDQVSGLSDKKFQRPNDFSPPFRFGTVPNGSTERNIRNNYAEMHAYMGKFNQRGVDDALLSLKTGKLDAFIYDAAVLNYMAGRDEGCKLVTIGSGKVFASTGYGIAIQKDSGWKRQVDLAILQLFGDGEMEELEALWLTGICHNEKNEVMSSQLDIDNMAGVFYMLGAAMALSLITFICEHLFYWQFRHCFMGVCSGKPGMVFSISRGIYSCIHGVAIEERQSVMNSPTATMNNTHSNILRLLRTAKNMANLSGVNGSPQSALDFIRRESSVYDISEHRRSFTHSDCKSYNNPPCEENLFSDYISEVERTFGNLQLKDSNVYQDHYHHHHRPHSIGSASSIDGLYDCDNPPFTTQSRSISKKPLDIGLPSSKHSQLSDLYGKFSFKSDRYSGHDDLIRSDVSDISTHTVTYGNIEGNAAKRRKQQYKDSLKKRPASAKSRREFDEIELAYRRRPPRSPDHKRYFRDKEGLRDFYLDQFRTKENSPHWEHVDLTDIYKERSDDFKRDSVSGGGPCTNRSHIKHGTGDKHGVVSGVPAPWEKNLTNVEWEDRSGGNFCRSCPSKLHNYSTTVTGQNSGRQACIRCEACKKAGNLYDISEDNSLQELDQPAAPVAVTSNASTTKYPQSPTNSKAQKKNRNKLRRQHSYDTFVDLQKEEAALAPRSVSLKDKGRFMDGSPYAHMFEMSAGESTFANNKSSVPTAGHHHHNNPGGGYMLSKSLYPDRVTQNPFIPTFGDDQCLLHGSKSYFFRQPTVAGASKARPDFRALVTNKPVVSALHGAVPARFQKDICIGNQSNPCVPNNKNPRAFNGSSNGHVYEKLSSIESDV
row,Structure (SMILES),IC50
1,"Cc1nc(OCc2nnn(-c3ccc(F)c(C(C)(F)F)c3)c2C)ncc1Cl [Example 596, 5-Chloro-2-[[1-[3-(1,1-difluoroethyl)-4-fluoro-phenyl]-5-methyl-triazol-4-yl]methoxy]-4-methyl-pyrimidine]",0.601 µM
2,"CNc1ccnc(OCc2cn(-c3ccc(F)c(C(C)(F)F)c3)nn2)n1 [Example 581, 2-[[1-[3-(1,1-Difluoroethyl)-4-fluoro-phenyl]triazol-4-yl]methoxy]-N-methyl-pyrimidin-4-amine]",0.033 µM
3,"CCNc1cnc(OCc2cn(-c3ccc(F)c(C(F)(F)F)c3)nn2)nc1 [Example 459, 2-((1-(3-(Trifluoromethyl)-4-fluorophenyl)-1H-1,2,3-triazol-4-yl)methoxy)-N-ethylpyrimidin-5-amine]",0.126 µM
4,"Cc1cnc(OCc2cn(-c3ccc(F)c(C)c3F)nn2)nc1N [Example 651, 2-[[1-(2,4-Difluoro-3-methyl-phenyl)triazol-4-yl]methoxy]-5-methyl-pyrimidin-4-amine]",0.262 µM
5,"Fc1ccc(-n2cc(COc3ccc(C(F)(F)F)cn3)nn2)cc1C(F)(F)F [Example 432, 2-[[1-[4-Fluoro-3-(trifluoromethyl)phenyl]triazol-4-yl]methoxy]-5-(trifluoromethyl)pyridine]",0.528 µM
6,"OCc1ccnc(OCc2cn(-c3ccc(F)c(C(F)F)c3)nn2)n1 [Example 400, [2-[[1-[3-(Difluoromethyl)-4-fluoro-phenyl]triazol-4-yl]methoxy]pyrimidin-4-yl]methanol]",0.036 µM
7,"Cc1cnc(OCc2cn(-c3ccc(F)c(C(C)(F)F)c3)nn2)nc1N [Example 576, 2-[[1-[3-(1,1-Difluoroethyl)-4-fluoro-phenyl]triazol-4-yl]methoxy]-5-methyl-pyrimidin-4-amine]",0.017 µM

# Same assay, conditions: standard assay; human GluN1/GluN2B, calcium flux (FLIPR), glutamate ~EC80
row,Structure (SMILES),IC50
1,"Cc1cccc(-n2cc(COc3ncc(C(C)(C)O)cn3)nn2)c1 [Example 249, 2-[2-[[1-(m-Tolyl)triazol-4-yl]methoxy]pyrimidin-5-yl]propan-2-ol]",0.289 µM
2,"Fc1ccc(-n2cc(COc3ncc(Cl)cn3)nn2)cc1Br [Example 42, 2-((1-(3-bromo-4-fluorophenyl)-1H-1,2,3-triazol-4-yl)methoxy)-5-chloropyrimidine]",0.003 µM
3,"Cc1cnc(OCc2cn(-c3cccc(C(C)(F)F)c3)nn2)nc1 [Example 297, 2-[[1-[3-(1,1-Difluoroethyl)phenyl]triazol-4-yl]methoxy]-5-methyl-pyrimidine]",0.005 µM
4,"Cn1ccc(NCc2cn(-c3ccc(F)c(OC(F)F)c3)nn2)n1 [Example 101, N-[[1-[3-(Difluoromethoxy)-4-fluoro-phenyl]triazol-4-yl]methyl]-1-methyl-pyrazol-3-amine]",0.374 µM
5,"CC(C)(O)c1cnc(OCc2cn(-c3ccc4c(c3)CCC4)nn2)nc1 [Example 369, 2-[2-[(1-Indan-5-yltriazol-4-yl)methoxy]pyrimidin-5-yl]propan-2-ol]",0.175 µM
6,"Fc1cnc(OCc2cn(-c3ccc(Cl)c(C(F)F)c3)nn2)nc1 [Example 66, 2-[[1-[4-Chloro-3-(difluoromethyl)phenyl]triazol-4-yl]methoxy]-5-fluoro-pyrimidine]",0.052 µM
7,"Cc1cnc(OCc2cn(-c3cccc(Br)c3)nn2)nc1 [Example 234, 2-[[1-(3-Bromophenyl)triazol-4-yl]methoxy]-5-methyl-pyrimidine]",0.022 µM
8,"COc1cnc(OCc2cn(-c3ccc(OC(F)(F)F)cc3)nn2)nc1 [Example 337, 5-Methoxy-2-[[1-[4-(trifluoromethoxy)phenyl]triazol-4-yl]methoxy]pyrimidine]",> 10 µM
9,"FC(F)Oc1cc(-n2cc(COc3ncccn3)nn2)ccc1Cl [Example 10, 2-[[1-[4-Chloro-3-(difluoromethoxy)phenyl]triazol-4-yl]methoxy]pyrimidine]",0.01 µM
10,"Cc1cnc(OCc2cn(-c3ccc(OC(F)F)cc3)nn2)nc1 [Example 333, 2-[[1-[4-(Difluoromethoxy)phenyl]triazol-4-yl]methoxy]-5-methyl-pyrimidine]",0.087 µM
